Data on five compounds can be found in patent US20240156790A1, “COMPOUNDS, COMPOSITIONS, AND METHODS FOR MODULATING FERROPTOSIS AND TREATING EXCITOTOXIC DISORDERS” (THE TRUSTEES OF COLUMBIA UNIVERSITY IN THE CITY OF NEW YORK, priority 2018, published 2024).

For one series, the system named is HT-1080 cells. Briefly: Rescue activity of Fer-1 analogs: inhibition of erastin-, IKE- or RSL3-induced death (Alamar Blue viability). In kind it is cell-based. For orientation: Resazurin is reduced to fluorescent resorufin, in cell work by metabolically active cells.
Series [1] can be described thus: GSH adduct formation (GSH trapping) assay. The class given is in vitro ADME. From the text:
We then tested PHB4082 in a GSH adduct formation assay and the Ames test.

The test system of series [2] is N27 rat dopaminergic cells. The series can be described thus: Suppression of ferroptosis induced by RSL3 in N27 cells (CellTiter-Glo viability). In kind it is cell-based.
The test system of a further series is R6/2 mice. Briefly: 45-day drinking water and PO study of ferrostatins in R6/2 mice (weight, survival, Rotarod, Catwalk, LC/MS). In kind it is in vivo. The procedure:
Ferrostatins and 42 μM Citric acid were dissolved in 5% DMSO, 5% ethanol, and 90% PBS rendering a final concentration of 0.29 mg/mL of each ferrostatin in drinking water. The mice drink ˜2 mL water per day, and the resulting dosage was around 20-30 mg/kg/day. R6/2 mice at ˜6-7 weeks of age were treated via drinking water and PO at 20 mg/kg. Mice were weighed daily, the weight recorded, and the change in body weight compared to the baseline, pre-injection weight was calculated. Any mouse that lost more than 20% of its baseline body weight for three consecutive days was euthanized prior to the completion of the study. Mice were euthanized by CO2 asphyxiation for 3 min after administration. Approximately 0.5 mL of blood was collected via cardiac puncture and immediately put in K3 EDTA microtubes and kept on ice. Brains were harvested, placed in Eppendorf tubes, and frozen on dry ice. Blood samples were centrifuged for 10 min at 2,100×g at 4° C., then plasma was transferred to a clean tube and frozen on dry ice.
Brain samples were weighed and placed in hard tissue homogenizing tubes. Two volume of HPLC grade methanol was added to make a solution and homogenized using the Omni Bead Ruptor 4 at speed 5 for two 30-second runs. The product was aliquoted and diluted by adding 900 μL HPLC grade ice-cold methanol. After centrifugation for 20 mins at 14,000×g at 4° C., supernatant was collected in a clean vial and dried by vacuum centrifugation (GeneVac).
Prior to LC-MS analysis, the samples were resuspended in 100 μL methanol and centrifuged for 5 minutes at 14,000×g at 4° C. The supernatant was analyzed via SYNAPT High Resolution Mass Spectrometer.
Rotarod “Linear Incline” experiment was performed with 11- to 12-week-old R6/2 mice at Day 25 with a rotations per minute (RPM) ramp over a 300s duration, start speed of 5 RPM, and max speed of 40 RPM. Mice were acclimated to testing room for 30 minutes prior to experimentation. Latency to fall was recorded in seconds for each mouse, and lanes were cleaned with 70% ethanol between mice.
The Catwalk apparatus (Noldus Information Technology, Leesburg, VA) consisted of an illuminated walled glass walkway (130 cm×10 cm) and a high-speed camera underneath. Mice were allowed 30 minutes to acclimate to the testing room, then behavioral task was performed with 11- to 12-week-old R6/2 mice on Day 25. Mice were placed on the glass walkway and allowed to ambulate freely across the runway towards the goal box at the end of the walkway. A goal box blocked the other end of the walkway, forcing the mouse to return to the entryway. Each mouse completed Catwalk runs until three compliant runs (fluent crossings without stopping/hesitation), were detected and verified, running for as long as needed to do so. Behavioral measures were calculated using Noldus Gait Analysis Software, and pairing and further comparisons were done using RM one-way ANOVAs.
The pharmacokinetic properties of TH-4-55-2 were initially assessed in vivo, focusing on its BBB distribution. Subsequent investigations involved TH-4-67 and TH-2-31. […] This regimen continued for 45 days, during which changes in body weight were monitored (FIG. 29A). Mouse body weights that fell under 20% of baseline measurements were sacrificed, while spontaneous deaths over the course of the study were monitored (FIG. 29B). Motor coordination was assessed via Rotarod behavior measurements (FIG. 30), and gait analysis was conducted using CatWalk (FIGS. 31A-31B).
For orientation: In the rotarod test animals must keep their balance on a rotating rod.

A short description of series [3]: Plasma stability, pig (Table 1). The class given is in vitro ADME.
A short description of series [4]: Plasma stability, rat (Table 1). In kind it is in vitro ADME.
The conditions of series [5]: Mouse; value marked ^1, Hofmans et al., 2016; cited from earlier work.
[6] abbreviates: Rattus norvegicus, N27, 24 h, Table 13, 20 nM RSL3, treated for 24 hours^d, read-out: IC50.
Where [7] appears, read: Rattus norvegicus, N27, 24 h, 20 nM RSL3, 24 hours, separate experiment I, read-out: IC50 I.
[8] abbreviates: Rattus norvegicus, N27, 24 h, 20 nM RSL3, 24 hours, separate experiment II, read-out: IC50 II.
The mark [9] stands for this setting: Rattus norvegicus, N27, 24 h, 20 nM RSL3, 24 hours, separate experiment III, read-out: IC50 III.
Where [10] appears, read: Rattus norvegicus, N27, 24 h, Table 3, ^d 24 hr treatment, 1,000 cells/well seeded, read-out: IC50.
Setting [11] is: Rattus norvegicus, N27, 24 h, RSL3 20 nM, 24 hours of treatment, read-out: IC50.
The mark [12] stands for this setting: Rattus norvegicus, N27, Table 7, value used for Cmax/IC50, read-out: IC50.

“Also recorded” adds a separate entry of the source. Read-outs that look alike come from different tables or passages of the source.

A word on the IC50: it is the concentration at which inhibition is half-maximal. On to `Cc1noc(-c2ccc(NC3CCCCC3)c(NC3CCCCC3)c2)n1` [PHB4082, N1,N2-dicyclohexyl-4-(3-methyl-1,2,4-oxadiazol-5-yl)benzene-1,2-diamine], for which the “increase in potency compared to fer-1” value in the series with HT-1080 cells (suppressing erastin-induced ferroptosis) is 7 fold. Further, the “GSH adduct formation / trapping result” value in series [1] is on record as “positive in a GSH trapping assay; also recorded: positive in the GSH adduct formation assay”. Further, in series [2] (setting [6]), the IC50 was found to be 2.6 nM.
Consider `CCC(CC)Nc1cc(-c2nc(C)no2)cnc1NC1CCCCC1` [TH-4-55-2, N^2-cyclohexyl-5-(3-methyl-1,2,4-oxadiazol-5-yl)-N^3-(pentan-3-yl)pyridine-2,3-diamine], for which the “potency relative to fer-1, in words” value in series [2] (20 nM RSL3) was “more potent than fer-1”. Also, the IC50 was 0.8 nM in series [2] (setting [7]); 1 nM in series [2] (setting [8]); 4.9 nM in series [2] (setting [9]); 2.2 nM in series [2] (setting [10]); 2.2 nM in series [2] (setting [6]); less than 10 nM in series [2] (setting [11]). Also, in series [2] (setting [12]), the IC50 turned out to be 2.23 nM. Besides, the “Rotarod latency to fall” value in the series on R6/2 mice (PO 20 mg/kg, Day 25, 20 mg/kg) was “consistently scored higher compared to control; also recorded: consistently higher mean latency to fall across trials compared to control”. In addition, in the series on R6/2 mice (PO and drinking water, 45-day course), the “accumulation in brain over plasma” value is recorded as “preferentially accumulated in the brain over plasma for both routes of administration”.
One may read the EC50 as the concentration giving half of the maximal effect. On to `Cc1noc(-c2cnc(NC3CCCC3)c(NC3CCCC3)c2)n1` [TH-4-67, N^2,N^3-dicyclopentyl-5-(3-methyl-1,2,4-oxadiazol-5-yl)pyridine-2,3-diamine], for which the “potency relative to fer-1, in words” value in series [2] (20 nM RSL3) was “more potent than fer-1”. Moreover, the IC50 in series [2] (setting [7]) turned out to be 1.5 nM; in series [2] (setting [8]) it was 1.4 nM; in series [2] (setting [9]) it was 3.4 nM; in series [2] (setting [10]) it was 2.1 nM; in series [2] (setting [6]), 2.1 nM; in series [2] (setting [12]) it was 2.1 nM. This compound also gave an EC50 in series [2] (Rattus norvegicus, N27, text b573) of 2 nM. Further, the “Catwalk gait: Base of Support (BOS)” value with R6/2 mice (PO, Day 25) is listed as “significant decrease in Base of Support (BOS); also recorded: significant improvement of BOS in the hind paws of least coordinated mice”. For the same compound, the “Catwalk gait: Cadence” value in the series on R6/2 mice (PO, Day 25, Best performing mice) was “the leading compound among this group”.
Regarding `CCOC(=O)c1ccc(NC2CCCCC2)c(N)c1` [Fer-1, Ferrostatin-1, reference compound], the EC50 in the series with HT-1080 cells (Homo sapiens, ^a 50% viability, HT-1080 cells treated with 10 μM erastin) came out at 50 nM. The figures for the “Plasma Stability at six hours (% remaining)” value in series [3] and in series [4] were “Pig: 100%” and 0-4%, respectively. Besides, the IC50 turned out to be 3.2 nM in series [2] (Rattus norvegicus, N27, Table 3, ^d 24 hr treatment, 1,000 cells/well seeded, read-out: IC50) and 12.5 nM in series [2] (Rattus norvegicus, N27, Table 3, ^e 48 hr treatment, 1,000 cells/well seeded, read-out: IC50). Further, the “Microsomal Stability t1/2” value in series [5] is reported as 1.9 ± 0.6 min.
Take `Cc1noc(-c2cnc(NC3CCCCC3)c(NC3CCCCC3)c2)n1` [TH-2-31, N^2,N^3-dicyclohexyl-5-(3-methyl-1,2,4-oxadiazol-5-yl)pyridine-2,3-diamine]: the “potency relative to fer-1, in words” value in series [2] (20 nM RSL3) is on record as “less potent than fer-1”. The half-inhibitory concentration (IC50) in series [2] (setting [7]) is 2.6 nM; in series [2] (setting [8]) it was 1.4 nM; in series [2] (setting [9]) it was 6.1 nM; in series [2] (setting [10]), 3.4 nM; in series [2] (setting [6]) it was 3.4 nM; in series [2] (setting [11]), less than 10 nM. Besides, the IC50 in series [2] (setting [12]) was determined as 3.37 nM. Also, in the series with R6/2 mice (PO, Day 25), the “Catwalk gait: Base of Support (BOS)” value is “significantly worse BOS compared to Vehicle; also recorded: significantly worse performance”.
